Results reported in patent publication US20110118262A1, “Pyrrolidinyl and Piperidinyl Compounds Useful as NHE-1 Inhibitiors” (BOEHRINGER INGELHEIM INTERNATIONAL GMBH, priority 2008, published 2011).

Biological target: T1, NHE-1 (Homo sapiens, UniProt P19634)
T1 construct: endogenous in cells; host or cells: HT-29
Assay: Evaluation of NHE-1 Inhibition (pHi) in HT-29 cells
Format: cell-based
Details: BCECF dye, 50% inhibition of the intracellular pH recovery, read-out: NHE1 HT29 pHi IC50
Protocol: Evaluation of NHE-1 Inhibition (pHi)
HT-29 cells resuspended in DMEM supplemented with 10% FBS, 1% NEAA, and 1% Penn-Strep are seeded at 10,000 cells/well in collagen coated 384 well plates which are then incubated for 24 hours at 37° C. The next day, the medium is removed and the cells are dye (Invitrogen's BCECF) loaded for 30 minutes at 37° C., washed three times with an acid loading buffer (10 mM NH4Cl, 1.8 mM CaCl2, 90 mM Choline Cl, 5 mM Glucose, 15 mM Hepes, 5 mM KCl, 1 mM MgCl2, adjusted to pH 7.5 with KOH) and further incubated at RT for 30 minutes.
At the end of the incubation, the buffer is removed and 5 uL of fresh acid loading buffer is added to each well to prevent the dessication of the cells. The plate is placed in a Hamamatsu FDSS6000 instrument and candidate compounds are added to the cells.

T1 sequence (P19634 whole entry): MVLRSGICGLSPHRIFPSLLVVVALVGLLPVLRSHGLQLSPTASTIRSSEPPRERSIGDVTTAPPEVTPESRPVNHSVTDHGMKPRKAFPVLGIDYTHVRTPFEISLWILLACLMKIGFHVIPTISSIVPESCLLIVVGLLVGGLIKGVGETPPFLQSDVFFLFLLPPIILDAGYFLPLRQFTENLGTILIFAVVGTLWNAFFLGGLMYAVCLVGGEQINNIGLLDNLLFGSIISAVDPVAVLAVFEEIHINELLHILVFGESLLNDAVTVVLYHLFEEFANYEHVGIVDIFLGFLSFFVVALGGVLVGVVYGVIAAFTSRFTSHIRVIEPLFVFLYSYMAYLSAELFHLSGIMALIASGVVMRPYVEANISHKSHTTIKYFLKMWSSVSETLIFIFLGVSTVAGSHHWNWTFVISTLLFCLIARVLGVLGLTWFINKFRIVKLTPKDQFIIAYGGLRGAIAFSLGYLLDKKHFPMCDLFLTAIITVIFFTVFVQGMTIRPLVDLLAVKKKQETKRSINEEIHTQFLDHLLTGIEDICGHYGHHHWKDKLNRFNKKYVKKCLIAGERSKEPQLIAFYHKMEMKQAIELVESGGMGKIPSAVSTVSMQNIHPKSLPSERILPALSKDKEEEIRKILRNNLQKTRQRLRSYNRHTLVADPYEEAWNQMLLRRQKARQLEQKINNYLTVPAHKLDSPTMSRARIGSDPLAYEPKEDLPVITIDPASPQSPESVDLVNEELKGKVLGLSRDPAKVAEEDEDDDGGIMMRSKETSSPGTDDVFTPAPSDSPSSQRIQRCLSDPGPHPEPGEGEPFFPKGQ

| Compound | IC50 [nM] |
| --- | --- |
| CS(=O)(=O)c1ccccc1C(=O)N1CCC(c2ccc(C(=O)NC(=N)N)cc2C(F)(F)F)CC1 [N-{4-[1-(2-Methanesulfonyl-benzoyl)-piperidin-4-yl]-3-trifluoromethyl-benzoyl}-guanidine] | 69 |
| COCC(=O)N1CCC(c2cc(OC)c(C(=O)NC(=N)N)cc2C(F)(F)F)CC1 [N-{2-Methoxy-4-[1-(2-methoxy-acetyl)-piperidin-4-yl]-5-trifluoromethyl-benzoyl}-guanidine] | 9 |
| Cc1ccccc1C(=O)N1CCC(c2ccc(C(=O)NC(=N)N)cc2C(F)(F)F)CC1 [N-{4-[1-(2-Methyl-benzoyl)-piperidin-4-yl]-3-trifluoromethyl-benzoyl}-guanidine] | 51 |
| CN1CCOc2cc(C(=O)N3CCC(c4ccc(C(=O)NC(=N)N)cc4C(F)(F)F)CC3)ccc21 [N-{4-[1-(4-Methyl-3,4-dihydro-2H-benzo[1,4]oxazine-7-carbonyl)-piperidin-4-yl]-3-trifluoromethyl-benzoyl}-guanidine] | 47 |
| N=C(N)NC(=O)c1ccc(C2CCN(C(=O)C3CCOCC3)CC2)c(C(F)(F)F)c1 [N-{4-[1-(Tetrahydro-pyran-4-carbonyl)-piperidin-4-yl]-3-trifluoromethyl-benzoyl}-guanidine] | 61 |
| N=C(N)NC(=O)c1ccc(C2CCN(C(=O)c3cccc(C(F)(F)F)c3)CC2)c(C(F)(F)F)c1 [N-{3-Trifluoromethyl-4-[1-(3-trifluoromethyl-benzoyl)-piperidin-4-yl]-benzoyl}-guanidine] | 250 |
| Cc1cc(C2CCN(C(=O)c3ccc(C#N)cc3)CC2)c(S(C)(=O)=O)cc1C(=O)NC(=N)N [N-{4-[1-(4-cyano-benzoyl)-piperidin-4-yl]-5-methanesulfonyl-2-methyl-benzoyl}-guanidine] | 27 |
| CS(=O)(=O)c1ccc(C(=O)N2CCC(c3ccc(C(=O)NC(=N)N)cc3C(F)(F)F)CC2)cc1 [N-{4-[1-(4-Methanesulfonyl-benzoyl)-piperidin-4-yl]-3-trifluoromethyl-benzoyl}-guanidine] | 21 |
| COc1cc(C2CCN(C(=O)c3cccc(C#N)c3)CC2)c(C(F)(F)F)cc1C(=O)NC(=N)N [N-{4-[1-(3-Cyano-benzoyl)-piperidin-4-yl]-2-methoxy-5-trifluoromethyl-benzoyl}-guanidine] | 19 |
| Cc1cc(C2CCN(C(=O)CN3CCCC3=O)CC2)c(C(F)(F)F)cc1C(=O)NC(=N)N [N-(2-Methyl-4-{1-[2-(2-oxo-pyrrolidin-1-yl)-acetyl]-piperidin-4-yl}-5-trifluoromethyl-benzoyl)-guanidine] | 37 |
| CCC(=O)N1CCC(c2ccc(C(=O)NC(=N)N)cc2S(C)(=O)=O)CC1 [N-{3-methanesulfonyl-4-[1-propionyl-piperidin-4-yl]-benzoyl}-guanidine] | 21 |
| N=C(N)NC(=O)c1ccc([C@@H]2CCN(C(=O)c3ccco3)C2)c(C(F)(F)F)c1 [(S)-N-{4-[-1-(Furan-2-carbonyl)-pyrrolidin-3--yl]-3-trifluoromethyl-benzoyl}-guanidine] | 17 |
| Cn1cccc1C(=O)N1CCC(c2ccc(C(=O)NC(=N)N)cc2C(F)(F)F)CC1 [N-{4-[1-(1-Methyl-1H-pyrrole-2-carbonyl)-piperidin-4-yl]-3-trifluoromethyl-benzoyl}-guanidine] | 79 |
| N=C(N)NC(=O)c1ccc(C2CCN(C(=O)c3ccc(F)cc3)CC2)c(C(F)(F)F)c1 [N-{4-[1-(4-Fluoro-benzoyl)-piperidin-4-yl]-3-trifluoromethyl-benzoyl}-guanidine] | 110 |
| COc1cc(C2CCN(C(=O)c3ccc4c(c3)CCC(=O)N4)CC2)c(C(F)(F)F)cc1C(=O)NC(=N)N [N-{2-Methoxy-4-[1-(2-oxo-1,2,3,4-tetrahydro-quinoline-6-carbonyl)-piperidin-4-yl]-5-trifluoromethyl-benzoyl}-guanidine] | 4 |
| N=C(N)NC(=O)c1ccc(C2CCN(C(=O)c3cccnc3)CC2)c(C(F)(F)F)c1 [N-{4-[1-(Pyridine-3-carbonyl)-piperidin-4-yl]-3-trifluoromethyl-benzoyl}-guanidine] | 10 |
| N=C(N)NC(=O)c1ccc(C2CCN(C(=O)CN)CC2)c(C(F)(F)F)c1 [N-{4-[1-(2-Amino-acetyl)-piperidin-4-yl]-3-trifluoromethyl-benzoyl}-guanidine] | 4 |
| N=C(N)NC(=O)c1ccc(C2CCN(C(=O)c3ccc(Cl)c(S(N)(=O)=O)c3)CC2)c(C(F)(F)F)c1 [2-Chloro-5-[4-(4-guanidinocarbonyl-2-trifluoromethyl-phenyl)-piperidine-1-carbonyl]-benzenesulfonamide] | 13 |
| CN(C)c1ccc(C(=O)N2CCC(c3ccc(C(=O)NC(=N)N)cc3C(F)(F)F)CC2)cc1 [N-{4-[1-(4-Dimethylamino-benzoyl)-piperidin-4-yl]-3-trifluoromethyl-benzoyl}-guanidine] | 180 |

| Compound | IC50 [nM] |
| --- | --- |
| N=C(N)NC(=O)c1ccc(C2CCN(C(=O)c3ccccn3)CC2)c(C(F)(F)F)c1 [N-{4-[1-(Pyridine-2-carbonyl)-piperidin-4-yl]-3-trifluoromethyl-benzoyl}-guanidine] | 10 |
| CC(=O)N1CCC(c2cc(C)c(C(=O)NC(=N)N)cc2C(F)(F)F)CC1 [N-[4-(1-Acetyl-piperidin-4-yl)-2-methyl-5-trifluoromethyl-benzoyl]-guanidine] | 9 |
| CN(C)C(=O)N1CCC(c2ccc(C(=O)NC(=N)N)cc2C(F)(F)F)CC1 [4-(4-Guanidinocarbonyl-2-trifluoromethyl-phenyl)-piperidine-1-carboxylic acid dimethylamide] | 10 |
| N=C(N)NC(=O)c1ccc(C2CCN(C(=O)CCc3ccccc3)CC2)c(C(F)(F)F)c1 [N-{4-[1-(3-Phenyl-propionyl)-piperidin-4-yl]-3-trifluoromethyl-benzoyl}-guanidine] | 75 |
| N=C(N)NC(=O)c1ccc(C2CCN(C(=O)c3ccc(-n4ccnc4)nc3)CC2)c(C(F)(F)F)c1 [N-{4-[1-(6-Imidazol-1-yl-pyridine-3-carbonyl)-piperidin-4-yl]-3-trifluoromethyl-benzoyl}-guanidine] | 14 |
| N=C(N)NC(=O)c1ccc(C2CCN(C(=O)C(N)CC3CC3)CC2)c(C(F)(F)F)c1 (centres unmarked) [N-{4-[1-(2-Amino-3-cyclopropyl-propionyl)-piperidin-4-yl]-3-trifluoromethyl-benzoyl}-guanidine] | 19 |
| COCCC(=O)N1CCC(c2ccc(C(=O)NC(=N)N)cc2C(F)(F)F)CC1 [N-{4-[1-(3-Methoxy-propionyl)-piperidin-4-yl]-3-trifluoromethyl-benzoyl}-guanidine] | 20 |
| Cc1cc(C(=O)N2CCC(c3ccc(C(=O)NC(=N)N)cc3C(F)(F)F)CC2)nn1C [N-{4-[1-(1,5-Dimethyl-1H-pyrazole-3-carbonyl)-piperidin-4-yl]-3-trifluoromethyl-benzoyl}-guanidine] | 20 |
| COc1ccc(CC(N)C(=O)N2CCC(c3ccc(C(=O)NC(=N)N)cc3C(F)(F)F)CC2)cc1 (centres unmarked) | 37 |
| COc1ccccc1-c1cc(C(=O)N2CCC(c3ccc(C(=O)NC(=N)N)cc3C(F)(F)F)CC2)ccn1 [N-(4-{1-[2-(2-Methoxy-phenyl)-pyridine-4-carbonyl]-piperidin-4-yl}-3-trifluoromethyl-benzoyl)-guanidine] | 200 |
| N=C(N)NC(=O)c1ccc(C2CCN(C(=O)c3ccc4ncsc4c3)CC2)c(C(F)(F)F)c1 [N-{4-[1-(Benzothiazole-6-carbonyl)-piperidin-4-yl]-3-trifluoromethyl-benzoyl}-guanidine] | 114 |
| N=C(N)NC(=O)c1ccc(C2CCN(C(=O)c3cscn3)CC2)c(C(F)(F)F)c1 [N-{4-[1-(Thiazole-4-carbonyl)-piperidin-4-yl]-3-trifluoromethyl-benzoyl}-guanidine] | 18 |
| Cc1cc(C2CCN(C(=O)c3ccc4c(c3)CCC(=O)N4)CC2)c(C(F)(F)F)cc1C(=O)NC(=N)N [N-{2-Methyl-4-[1-(2-oxo-1,2,3,4-tetrahydro-quinoline-6-carbonyl)-piperidin-4-yl]-5-trifluoromethyl-benzoyl}-guanidine] | 63 |
| CC(C)C(=O)N1CCC(c2ccc(C(=O)NC(=N)N)cc2C(F)(F)F)CC1 [N-[4-(1-Isobutyryl-piperidin-4-yl)-3-trifluoromethyl-benzoyl]-guanidine] | 25 |
| N=C(N)NC(=O)c1ccc(C2CCN(C(=O)c3ccc(S(=O)(=O)C(F)(F)F)cc3)CC2)c(C(F)(F)F)c1 [N-{4-[1-(4-Trifluoromethanesulfonyl-benzoyl)-piperidin-4-yl]-3-trifluoromethyl-benzoyl}-guanidine] | 230 |
| N=C(N)NC(=O)c1ccc(C2CCN(C(=O)c3ccc(C(=O)O)cc3)CC2)c(C(F)(F)F)c1 [4-[4-(4-Guanidinocarbonyl-2-trifluoromethyl-phenyl)-piperidine-1-carbonyl]-benzoic acid] | 27 |
| N=C(N)NC(=O)c1ccc(C2CCN(C(=O)C3CCCCN3)CC2)c(C(F)(F)F)c1 (centres unmarked) [N-{4-[1-(Piperidine-2-carbonyl)-piperidin-4-yl]-3-trifluoromethyl-benzoyl}-guanidine] | 9 |
| N=C(N)NC(=O)c1ccc(C2CCN(C(=O)C3CCN(c4ncccn4)CC3)CC2)c(C(F)(F)F)c1 [N-{4-[1-(1-Pyrimidin-2-yl-piperidine-4-carbonyl)-piperidin-4-yl]-3-trifluoromethyl-benzoyl}-guanidine] | 70 |
| CCCC(=O)N1CCC(c2ccc(C(=O)NC(=N)N)cc2C(F)(F)F)CC1 [N-[4-(1-Butyryl-piperidin-4-yl)-3-trifluoromethyl-benzoyl]-guanidine] | 30 |
